These results are taken from patent US20240423203A1, “Herbicidally Active Combination for Agricultural Applications” (priority 2021, published 2024).

One data set relates to Lemna minor. Kind of data set: Herbicide activity on Lemna minor in vitro, fresh weight reduction (Example 5). The class given is in vivo. To be noted: all chemicals at 10 mg/L; 7-day exposure. On the procedure:
The experiment was carried out in Lemna minor growing in vitro conditions. Lemna minor (duckweed) was bought in the local market. A stock culture was maintained on modified Hoagland medium in a controlled environment. The pH of the medium was adjusted to 6.0, and the plants were grown under static conditions in a plant growth chamber at 25±2° C., light/dark regime of 16 h/8 h.
For the experiments, fronds free from any visible chlorosis were taken from the stock cultures and exposed to the appropriate treatment. For each treatment, we used six repetitions with three fronds per repetition as the initial frond number. Individual fronds were transferred to a 12 well multiplate containing Hoagland medium (control), Hoagland medium containing polyferulates, herbicides or the combination as shown in Table 8. All chemicals were evaluated at the same concentration (10 mg/L). The multiplate was covered with a transparent cover to prevent evaporation. The herbicide activity was evaluated as fresh weight reduction compared to untreated plants after one week of incubation in the described conditions.

For data set [1], the system named is potato plants. Description: Desiccant action on potato leaf, field plots, visual evaluation 15 DAA (Example 3). The format is in vivo. To be noted: for Desiccation (%): potato leaf, 15 DAA; for effect in combination with the herbicides tested (synergistic / antagonist): potato desiccation, Colby analysis. From the text: The desiccant was applied by spraying.

For the next data set, the system named is Echinochloa colona. Kind of data set: Herbicide activity on Echinochloa colona, visual evaluation 20 DAT (Example 6). The class given is in vivo. The text has this:
Echinochloa colona is a cosmopolitan weed common in crops (mainly rice, maize and vegetables), gardens, roadsides, disturbed sites, waste areas and pastures. It also grows along waterways, on the margins of lakes and ponds, in swamps and wetlands, and in other damp habitats. It has the potential to invade natural areas and completely outcompete native vegetation. This weed pose a significant threat to rice productivity globally and are usually reported as noxious weeds in several economically important crops around the world. E. colona has vigorous growth traits and high seed production since each E. colona plant can produce up to 42,000 seeds. The experiment in Echinochloa colona plants was carried out in independent pots and in four replications. […] The products were applied by spraying. The herbicide activity was visually evaluated 20 days after treatment.

The test system of data set [2] is potato plants. Kind of data set: Greenhouse potato trial: fresh weight reduction and quantum yield of PSII (Example 7). The class given is in vivo. To be noted: for Fresh weight of the plants (% of control): 14 DAA; for Quantum yield of PSII: three days after foliar application. The method, then: The trial was carried out in a greenhouse in potato plants. The desiccant (pyraflufen-ethyl, a Protoporphyrinogen Oxidase (PPO) Inhibitor) was applied by spraying at different percentage of the recommended doses alone or combined with polyferulates. The effect of the herbicide was first evaluated by measurements of the photosynthetic capacity of treated leaves using the QY (quantum yield) three days after foliar application and the final desiccation efficiency was evaluated 14 days after treatment. The herbicide activity (desiccation efficiency) was evaluated as fresh weight reduction respect to untreated plants (control) an expressed in percentage.

The subject of data set [3] is potato plants. Description: Desiccant action on potato leaf in function of polyferulate application timing (Example 8). The class given is in vivo. To be noted: application rate 10.6 g a.i. ha^−1; 15 days after treatment. The text has this: Polyferulates were applied the day before the desiccant spraying (D−1), in tank mix combination with the desiccant (D−0) or the day after the desiccant spraying (D+1). […] The desiccant was applied by spraying.

The subject of data set [4] is Tomato (Solanum lycopersicum) plants. Description: Herbicide uptake into plant foliage: distribution of pyraflufen-ethyl between leaf fractions (Example 9). The following applies: tomato leaves. The format is in vivo. On the procedure:
Tomato (Solanum lycopersicum) plants were sprayed with a diluted solution of pyraflufen-ethyl herbicide or a diluted solution of pyraflufen-ethyl herbicide combined with polyferulates. Samples of treated leaves were taken at 2 h and 24 h after treatment. An extraction procedure following successive steps was used to describe the distribution of pyraflufen-ethyl residues on and in plant leaves. Four fractions of pesticide residues were recovered: (i) the fraction of pesticide susceptible to wash-off by rain that was assumed to correspond to the water-washable fraction, (ii) the fraction of pesticide having adsorbed on the leaf surface that was assumed to correspond to the ethanol-extracted fraction, (iii) the fraction of pesticide having penetrated into the cuticle that was assumed to correspond to the hexane-extracted fraction, and (iv) the fraction of pesticide having penetrated into the foliar tissues that was assumed to correspond to the bound residues fraction.

Data set [5] deals with potato plants. Kind of data set: Desiccant action on potato leaf of carfentrazone-ethyl with polyferulates of different molecular weight (Example 4). The following applies: application rate 25 g a.i. ha^−1, 15 DAA.
Where [6] appears, read: pyraflufen-ethyl at 25% of recommended dose.
The mark [7] stands for this setting: pyraflufen-ethyl at 50% of recommended dose.
The mark [8] stands for this setting: pyraflufen-ethyl at 75% of recommended dose.
The mark [9] stands for this setting: pyraflufen-ethyl at 100% of recommended dose.

On to `COC(=O)Nc1cccc(OC(=O)Nc2cccc(C)c2)c1` [Phenmedipham], for which the “Herbicide activity (fresh weight reduction compared to untreated plants)” value in the data set on Lemna minor is recorded as 3.
Diferulic acid: the “Desiccation (%)” value in the data set on potato plants [1] (application rate 12) is given as 2%. Besides, the “effect in combination with the herbicides tested (synergistic / antagonist)” value with potato plants [1] is given as “antagonist”.
As to `COC(=O)c1cccc(C)c1S(=O)(=O)NC(=O)Nc1nc(OCC(F)(F)F)nc(N(C)C)n1` [Triflusulfuron-methyl], in the data set with Lemna minor, the “Herbicide activity (fresh weight reduction compared to untreated plants)” value is recorded as 34.
Turning to `COc1cc(/C=C/C(=O)O)ccc1O` [Ferulic acid, (2E)-3-(4-hydroxy-3methoxyphenyl)prop-2-enoic acid], the “Desiccation (%)” value with potato plants [1] (application rate 12) is given as 3%. Further, in the data set on potato plants [1], the “effect in combination with the herbicides tested (synergistic / antagonist)” value is recorded as “antagonist”.
The compound `O=C(O)CNCP(=O)(O)O` [Glyphosate] had a Herbicide activity in the data set on Echinochloa colona (application rate 550 g a.i. ha^−1) of 59%.
`CCOC(=O)COc1cc(-c2nn(C)c(OC(F)F)c2Cl)c(F)cc1Cl` [Pyraflufen-ethyl]: the “Fresh weight of the plants (% of control)” value is on record as 39 % of control in the data set with potato plants [2] (setting [6]), 22 % of control in the data set on potato plants [2] (setting [7]), 14 % of control in the data set on potato plants [2] (setting [8]) and 10 % of control with potato plants [2] (setting [9]). Besides, the “Quantum yield of PSII” value in the data set on potato plants [2] (setting [6]) is reported as 0.6; with potato plants [2] (setting [7]), 0.461; in the data set on potato plants [2] (setting [8]), 0.385; in the data set on potato plants [2] (setting [9]), 0.335. In addition, the “Desiccation (%)” value with potato plants [1] (application rate 5.3) was 60%; in the data set on potato plants [1] (application rate 10.6) it was 78%; in the data set on potato plants [1] (application rate 15.9), 85%; with potato plants [1] (application rate 21.2), 90%; in the data set on potato plants [3], 79%. In addition, the entries for the “pyraflufen-ethyl in Bound residues fraction” value in data set [4] (2 h after treatment) and in data set [4] (24 h after treatment) were 0.16 μg/g of fresh weight leaves and 0.12 μg/g of fresh weight leaves, respectively. Also, the “pyraflufen-ethyl in Ethanol-extracted fraction” value is 1.88 μg/g of fresh weight leaves in data set [4] (2 h after treatment) and 1.59 μg/g of fresh weight leaves in data set [4] (24 h after treatment). Moreover, the “pyraflufen-ethyl in Hexane-extracted fraction” value in data set [4] (2 h after treatment) is 0.51 μg/g of fresh weight leaves; in data set [4] (24 h after treatment) it was 0.94 μg/g of fresh weight leaves. For the same compound, the “pyraflufen-ethyl in Water-washable fraction” value in data set [4] (2 h after treatment) was 3.34 μg/g of fresh weight leaves; in data set [4] (24 h after treatment), 3.1 μg/g of fresh weight leaves.
Take `COc1cnc(OC)n2nc(NS(=O)(=O)c3c(OCC(F)F)cccc3C(F)(F)F)nc12` [Penoxsulam]: the Herbicide activity in the data set on Echinochloa colona (application rate 30 g a.i. ha^−1) was found to be 16%.
`CCCCCCCCC(=O)O` [Pelargonic acid]: the “Desiccation (%)” value with potato plants [1] (application rate 2720) came out at 51%; in the data set on potato plants [1] (application rate 5440), 68%; in the data set on potato plants [1] (application rate 10880), 95%.
On to `CCOC(=O)C(Cl)Cc1cc(-n2nc(C)n(C(F)F)c2=O)c(F)cc1Cl` (centres unmarked) [Carfentrazone-ethyl], for which the “Desiccation (%)” value with potato plants [1] (application rate 30) is 73%; in the data set on potato plants [1] (application rate 60) it was 96%; in the data set with potato plants [5], 56%.
Turning to `CCOC1Oc2ccc(OS(C)(=O)=O)cc2C1(C)C` (centres unmarked) [Ethofumesate], in the data set on Lemna minor, the “Herbicide activity (fresh weight reduction compared to untreated plants)” value turned out to be 0.
For `CCCC(=NOCC(C)Oc1ccc(Cl)cc1)C1=C(O)CC(C2CCCSC2)CC1=O` (centres unmarked) [Profoxydim], the Herbicide activity in the data set on Echinochloa colona (application rate 110 g a.i. ha^−1) came to 34%. The “Herbicide activity (fresh weight reduction compared to untreated plants)” value in the data set with Lemna minor was 45.
